Publication PMC10559868, “Spectroscopic study and molecular simulation: Bovine serum albumin binding with anticancer Pt complex of amyl dithiocarbamate ligand” (Heliyon, 2023)

Target: T1, Bovine serum albumin (BSA) (Bos taurus, UniProt P02769)
T1 construct: gene ALB
Settings: read-out: Kb M^-1))

T1 sequence (P02769 25-607): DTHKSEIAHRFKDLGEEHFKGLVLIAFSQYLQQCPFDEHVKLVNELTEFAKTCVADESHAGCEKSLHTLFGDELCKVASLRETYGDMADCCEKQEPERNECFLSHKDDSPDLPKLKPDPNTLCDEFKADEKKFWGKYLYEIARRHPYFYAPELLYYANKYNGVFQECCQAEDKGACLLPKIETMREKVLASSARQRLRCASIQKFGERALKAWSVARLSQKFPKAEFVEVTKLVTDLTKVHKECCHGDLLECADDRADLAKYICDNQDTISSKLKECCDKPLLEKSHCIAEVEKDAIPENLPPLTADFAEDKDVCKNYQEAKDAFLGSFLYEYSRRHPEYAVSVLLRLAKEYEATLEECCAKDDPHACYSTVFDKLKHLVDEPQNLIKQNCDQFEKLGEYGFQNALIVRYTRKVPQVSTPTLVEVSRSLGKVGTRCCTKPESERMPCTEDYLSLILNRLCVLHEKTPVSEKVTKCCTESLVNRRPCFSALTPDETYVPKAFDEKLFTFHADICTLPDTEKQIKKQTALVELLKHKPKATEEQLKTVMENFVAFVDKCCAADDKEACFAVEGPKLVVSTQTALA

## CCCCCNC1=[S+][Pt-2]2([S]1)[n+]1ccccc1-c1cccc[n+]12 [[Pt(bpy)(amyl.dtc)]NO3]
  Kd: 148 µM
